Laboratory results: ChEMBL document CHEMBL3774329, “Synthesis and Evaluation of Oxyguanidine Analogues of the Cysteine Protease Inhibitor WRR-483 against Cruzain” (ACS Med Chem Lett, 2016)
pEC50: −log10 of the molar value. Activity calls are given as the source filed them. No cut-off for these calls is given here.

Key:
[1] = biological target: Cytochrome P450 2D6 (Homo sapiens, UniProt P10635); experiment: Inhibition of CYP2D6 in human liver microsomes at 1 to 10 uM after 10 mins in presence of NADPH; assay type: ADME
[2] = biological target: Cruzipain (Trypanosoma cruzi) (UniProt P25779); experiment: Inhibition of His-tagged recombinant Trypanosoma cruzi cruzain using Z-Phe-Arg-AMC as substrate assessed as ratio of Kinact to Ki preincubated for 5 mins at pH 8 by spectrofluorometric analysis
[3] = biological target: Cruzipain (Trypanosoma cruzi) (UniProt P25779); experiment: Inhibition of His-tagged recombinant Trypanosoma cruzi cruzain using Z-Phe-Arg-AMC as substrate assessed as ratio of Kinact to Ki preincubated for 5 mins at pH 5.5 by spectrofluorometric analysis
[4] = biological target: Cruzipain (Trypanosoma cruzi) (UniProt P25779); experiment: Ratio of Kinact/Ki at pH 8 to Kinact/Ki at pH 5.5 for inhibition of His-tagged recombinant Trypanosoma cruzi cruzain
[5] = tested on: Trypanosoma cruzi; experiment: Antiparasitic activity against Trypanosoma cruzi CA-I/72 trypomastigote infected in mouse C2C12 cells after 72 hrs by DAPI-staining based microscopic analysis; assay type: functional, organism-based; settings: CA-I/72, C2C12, 72 h
[6] = biological target: Cruzipain (Trypanosoma cruzi) (UniProt P25779); experiment: Ratio of Kinact/Ki at pH 5.5 to Kinact/Ki at pH 8 for inhibition of His-tagged recombinant Trypanosoma cruzi cruzain
[7] = tested on: Plasma; experiment: Drug degradation in C57BL/6 mouse plasma assessed as proteolytic cleavage in presence of EDTA by LC-MS/MS analysis; assay type: ADME, cell-free
[8] = tested on: Liver microsome; experiment: Stability of compound in rat liver microsomes at 1 uM measured at 5 to 60 mins in presence of NADPH by LC-MS/MS analysis; assay type: ADME
[9] = biological target: Cytochrome P450 2C9 (Homo sapiens, UniProt P11712); experiment: Inhibition of CYP2C9 in human liver microsomes at 1 to 10 uM after 10 mins in presence of NADPH; assay type: ADME
[10] = biological target: T1, Cysteine proteinase 1 (Entamoeba histolytica) (UniProt Q01957); experiment: Inhibition of Entamoeba histolytica cysteine protease1 using ZRR-AMC peptide as substrate assessed as release of AMC at 250 pM to 1 uM incubated for 15 mins by fluorometric analysis
T1 sequence (whole entry): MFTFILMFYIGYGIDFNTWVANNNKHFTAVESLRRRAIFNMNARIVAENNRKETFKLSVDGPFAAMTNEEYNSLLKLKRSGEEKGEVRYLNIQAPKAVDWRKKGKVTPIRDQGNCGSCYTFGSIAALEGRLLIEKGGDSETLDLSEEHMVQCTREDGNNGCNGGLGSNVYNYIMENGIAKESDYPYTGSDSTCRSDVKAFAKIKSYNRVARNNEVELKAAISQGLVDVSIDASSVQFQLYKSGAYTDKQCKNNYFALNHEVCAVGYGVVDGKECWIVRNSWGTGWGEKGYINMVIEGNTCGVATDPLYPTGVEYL

[11] = tested on: Liver microsome; experiment: Stability of compound in human liver microsomes at 1 uM measured at 5 to 60 mins in presence of NADPH by LC-MS/MS analysis; assay type: ADME
[12] = Stability of compound in mouse liver microsomes at 1 uM measured at 5 to 60 mins in presence of NADPH by LC-MS/MS analysis; assay type: ADME
[13] = tested on: Rattus norvegicus; experiment: Drug level in Sprague-Dawley rat treated with WRR-668 at 3 mg/kg, iv over 8 hrs by LC-MS/MS analysis; assay type: ADME, organism-based; settings: in vivo
[14] = tested on: Rattus norvegicus; experiment: Drug metabolism in Sprague-Dawley rat assessed as WRR-671 formation at 3 mg/kg, iv over 8 hrs by LC-MS/MS analysis; assay type: ADME, organism-based; settings: in vivo

Cruzipain (Trypanosoma cruzi), sequence (P25779 123-467 limits assumed): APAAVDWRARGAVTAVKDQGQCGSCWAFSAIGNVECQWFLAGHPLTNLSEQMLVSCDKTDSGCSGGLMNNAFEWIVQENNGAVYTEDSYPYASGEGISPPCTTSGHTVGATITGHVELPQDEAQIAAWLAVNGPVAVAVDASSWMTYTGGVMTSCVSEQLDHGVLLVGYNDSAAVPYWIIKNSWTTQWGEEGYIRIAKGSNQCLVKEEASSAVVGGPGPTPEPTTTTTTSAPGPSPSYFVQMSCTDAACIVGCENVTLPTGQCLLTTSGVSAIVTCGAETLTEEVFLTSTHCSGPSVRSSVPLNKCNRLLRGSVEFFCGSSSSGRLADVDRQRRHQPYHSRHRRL
Cytochrome P450 2D6, sequence (P10635 whole entry): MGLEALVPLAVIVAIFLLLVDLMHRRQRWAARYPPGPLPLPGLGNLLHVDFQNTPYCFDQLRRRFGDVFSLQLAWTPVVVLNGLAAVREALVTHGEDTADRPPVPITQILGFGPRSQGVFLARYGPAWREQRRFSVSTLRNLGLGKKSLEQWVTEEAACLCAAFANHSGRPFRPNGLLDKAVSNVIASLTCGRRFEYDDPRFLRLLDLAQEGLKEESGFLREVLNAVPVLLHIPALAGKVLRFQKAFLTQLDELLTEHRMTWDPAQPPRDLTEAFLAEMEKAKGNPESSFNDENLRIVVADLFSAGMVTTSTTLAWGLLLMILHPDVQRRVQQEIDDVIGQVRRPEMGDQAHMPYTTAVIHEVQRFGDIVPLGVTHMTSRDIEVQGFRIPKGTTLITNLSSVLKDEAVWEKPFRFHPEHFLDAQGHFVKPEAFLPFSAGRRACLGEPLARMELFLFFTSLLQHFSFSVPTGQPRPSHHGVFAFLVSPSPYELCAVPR
Cytochrome P450 2C9, sequence (P11712 whole entry): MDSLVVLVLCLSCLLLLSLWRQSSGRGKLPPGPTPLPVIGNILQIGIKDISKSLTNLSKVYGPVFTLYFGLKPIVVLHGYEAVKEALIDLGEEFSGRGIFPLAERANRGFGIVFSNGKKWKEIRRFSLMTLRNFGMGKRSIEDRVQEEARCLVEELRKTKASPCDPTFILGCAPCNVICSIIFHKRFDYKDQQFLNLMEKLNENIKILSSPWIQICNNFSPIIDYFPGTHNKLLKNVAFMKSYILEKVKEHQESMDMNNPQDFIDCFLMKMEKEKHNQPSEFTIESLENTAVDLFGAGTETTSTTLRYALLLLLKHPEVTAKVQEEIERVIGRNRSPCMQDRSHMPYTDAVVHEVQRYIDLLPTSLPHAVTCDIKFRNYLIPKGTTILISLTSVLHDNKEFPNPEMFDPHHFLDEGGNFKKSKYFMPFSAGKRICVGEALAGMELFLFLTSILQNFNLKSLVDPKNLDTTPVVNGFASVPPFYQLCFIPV

SMILES	inhibition (INH) [1]	Ratio [2]	Ratio [3]	Ratio [4]	also measured
CONC(=N)NCCC[C@H](NC(=O)N1CCN(C)CC1)C(=O)N[C@H](/C=C/S(=O)(=O)c1ccccc1)CCc1ccccc1	Active	65700 M⁻¹ s⁻¹	9100 M⁻¹ s⁻¹	> 3	pEC50 [5]: 6.57
CN1CCN(C(=O)N[C@@H](CCCONC(=N)N)C(=O)N[C@H](/C=C/S(=O)(=O)c2ncccn2)CCc2ccccc2)CC1		1500 M⁻¹ s⁻¹	320000 M⁻¹ s⁻¹		Ratio [6]: > 5
CN1CCN(C(=O)N[C@@H](Cc2ccccc2)C(=O)N[C@H](/C=C/S(=O)(=O)c2ccccc2)CCc2ccccc2)CC1		32500 M⁻¹ s⁻¹	158000 M⁻¹ s⁻¹		Ratio [6]: > 5
CONC(=N)NCCC[C@H](NC(=O)N1CCN(C)CC1)C(=O)N[C@H](/C=C/S(=O)(=O)c1ccccn1)CCc1ccccc1	Active	1.17e+06 M⁻¹ s⁻¹	25000 M⁻¹ s⁻¹	> 3	Stability [7]: Unstable; Stability [8]: Stable; inhibition (INH) [9]: Active; inhibition [10]: Active; Stability [11]: Stable; Stability [12]: Stable
CN1CCN(C(=O)N[C@@H](CCCNC(=N)N)C(=O)N[C@H](/C=C/S(=O)(=O)c2ccccn2)CCc2ccccc2)CC1		3100 M⁻¹ s⁻¹	8100 M⁻¹ s⁻¹		inhibition [10]: Active
CN1CCN(C(=O)N[C@@H](CCCO)C(=O)N[C@H](/C=C/S(=O)(=O)c2ccccc2)CCc2ccccc2)CC1					Drug metabolism [13]: metabolite_detected
CN1CCN(C(=O)N[C@@H](CCONC(=N)N)C(=O)N[C@H](/C=C/S(=O)(=O)c2ccccc2)CCc2ccccc2)CC1		138000 M⁻¹ s⁻¹	93100 M⁻¹ s⁻¹		
CN1CCN(C(=O)N[C@@H](CCCONC(=N)N)C(=O)N[C@H](/C=C/S(=O)(=O)c2ccccc2)CCc2ccccc2)CC1.Cl.Cl	Active	53400 M⁻¹ s⁻¹	43300 M⁻¹ s⁻¹		
CN1CCN(C(=O)N[C@@H](CCCCNC(=N)N)C(=O)N[C@H](/C=C/S(=O)(=O)c2ccccc2)CCc2ccccc2)CC1		59700 M⁻¹ s⁻¹	11000 M⁻¹ s⁻¹	> 3	
CN1CCN(C(=O)N[C@@H](CCCONC(=N)N)C(=O)N[C@H](/C=C/S(=O)(=O)c2ccccn2)CCc2ccccc2)CC1	Active	308000 M⁻¹ s⁻¹	214000 M⁻¹ s⁻¹		Stability [8]: Stable; inhibition [10]: Active; Drug metabolism [14]: metabolite_detected; Stability [11]: Stable; Stability [12]: Stable
CN1CCN(C(=O)N[C@@H](CCCNC(=N)N)C(=O)N[C@H](/C=C/S(=O)(=O)c2ccccc2)CCc2ccccc2)CC1		113000 M⁻¹ s⁻¹	36600 M⁻¹ s⁻¹	> 3	
